Test results from patent publication US20070173545A1, “Activation of hypoxia-inducible gene expression” (priority 2003, published 2007).
“Also recorded” adds a separate entry of the source.

Tests used:
[1] = tested on: HIF-1a protein; experiment: HIF-1a levels in nuclear extracts of U87 glioma cells (western blot); assay type: cell-based, human; conditions: 150 μm DFO, four hours
Description: (A) U87 glioma cells cultured in DMEM were switched to Krebs buffer containing 5.5 mM glucose (Glc) and then evaluated for nuclear HIF-1a levels at various times by western blot analysis. (B) HIF-1a levels were measured after four hours incubation of cells in Krebs buffer containing the indicated glucose concentrations or with 5.5 mM 2-deoxyglucose (2-DG) substituted for glucose. (C) HIF-1a levels were measured in U87 cells cultured in glucose-free Krebs buffer following treatment for four hours under normoxia (21% oxygen) hypoxia (1% oxygen) or with 150 μm desferrioxamine (DFO). (D) Induction of HIF-1a by glucose was monitored in the presence of 50 μM IAA or 1 mM 4-CIN. […] Results are representative of experiments repeated at least three times.
Similar measurements were made in the presence of 50 μM IAA or in glucose-free Krebs buffer. […] HIF-1a induction by four hours treatment with 5.5 mM glucose-containing Krebs (Glc) is shown for comparison. (E) Digitonin-permeabilized cells were treated with 1% oxygen or Krebs containing either 5.5 mM glucose or 2 mM pyruvate in the presence of 50 μM IAA. Permeabilized cell in lanes 5 and 6 were treated with 3 mM NAD or NADH respectively in glucose free Krebs. Nuclear HIF-1a levels were determined four hours later. (F) HIF-1a levels were determined after four hour treatment of cells in glucose-free Krebs (lane 1) or 5.5 mM Glucose containing Krebs. […] (H) To measure the decay of the HIF-1a protein, HIF-1a measurements were made after four hour treatment under hypoxia (lane 1), four hours hypoxia followed by 30 minutes normoxia (lane 2), four hour treatment with 150 μM DFO (lane 3), four hours DFO followed by addition of 100 μM CHX for one hour (lane 4), four hours treatment with 2 mM pyruvate (lane 5), and four hours pyruvate followed by addition of 100 μM CHX for one hour (lane 6). (H) HIF-1a levels were determined in digitonin-permeabilized cells treated for four hour with Krebs containing no glucose (lane 1), 1 mM pyruvate (lane 2), or 1 mM pyruvate and 10 mM 2-OG (lane 3).
In order to resolve the biochemical mechanisms underlying this phenomenon, we studied the human glioma cell line U-87 under conditions of carefully defined culture media. Thus we studied these cells while culturing them in freshly prepared Krebs buffer, all components of which were known to us.
To precisely define the glucose metabolite mediating HIF-1a accumulation, we utilized pharmacological inhibitors of glycolysis as well as the direct addition of different glucose metabolites to cells (FIG. 4).

[2] = tested on: HRE containing promoter; experiment: HRE-GFP reporter in U373 cells; assay type: cell-based, human; conditions: eight hours, glucose-free medium
Source text: (§1) FIG. 18: 2-oxoacids activate HIF-mediated gene expression in human cell lines Effective gene expression by HIF not only involves HIF protein stabilization via inhibition of HPH enzymes but also HIF-1 binding to DNA, inhibition of FIH-1 activity, and gene transcription (see FIG. 1). (A) Glioma cells used in our studies express FIH-1 as assessed using RT-PCR. […] Expression of beta-actin, a housekeeping gene not under HIF regulation is not affected by pyruvate. […] (E) U373 cell were transfected with a green fluorescent protein (GFP) construct under the control of an HIF regulatory element (HRE) containing promoter and then cultured for eight hours in glucose-free medium under the indicated conditions. […] U251 cells stably transfected with a luciferase construct under the control of an HRE containing promoter were cultured for six hours in glucose free Krebs with the following conditions: 1=control, 2=1% oxygen, 3=pyruvate (2 mM), 4=OAA (2 mM), 5=Ethylpyruvate (2 mM), 6=Glucose (5.5 mM), 7=DMOG (0.5 mM), 8=Lactacystin-beta lactone ([…]).
Effective gene expression by HIF not only involves HIF protein stabilization via inhibition of HPH enzymes but also HIF-1 binding to DNA, inhibition of FIH-1 activity, and gene transcription. The human gliomas that we utilized for most of our studies all express mRNA for FIH-1 (FIG. 18A). […]

[3] = tested on: HRE containing promoter; experiment: HRE-luciferase reporter in U251 cells; assay type: cell-based, human; conditions: six hours, glucose free Krebs, pyruvate, OAA, Ethylpyruvate 2 mM, Lactacystin-beta lactone 20 mM
Source text: as §1
FIG. 19: HIF-mediated gene expression is selectively reversed by ascorbate U251 cells stably expressing HRE-luciferase were cultured in glucose-free Krebs buffer with the indicated conditions for eight hours. Pyruvate, oxaloacetate, and DMOG were added at 1 mM each.
Effective gene expression by HIF not only involves HIF protein stabilization via inhibition of HPH enzymes but also HIF-1 binding to DNA, inhibition of FIH-1 activity, and gene transcription. The human gliomas that we utilized for most of our studies all express mRNA for FIH-1 (FIG. 18A). […] To directly assess activation of gene containing an HRE regulated promoter by the glucose metabolites pyruvate and oxaloacetate, we used U373 glioma cells transfected with an HRE-green fluorescent (HRE-GFP) construct that responds to HIF activation.

[4] = tested on: HIF-1a; experiment: HIF-1a induction in digitonin-permeabilized human glioma cells (U87, U251); assay type: cell-based; conditions: 1 mM doses
Description: We determined the ability of each shown structure to induce HIF by exposing digitonin-permeabilized human glioma cells (U87, U251) to 1 mM doses.
At four hours, ATP levels were measured in cell extracts using the luciferase method.
In order to investigate the mechanism of action of the 2-oxoacid HIF inducers that we identified we first determined their effects upon cellular ATP levels. […] As shown in the scheme in FIG. 1, cellular levels of HIF-1a can be elevated by blockade of proteasomal activity, ubiquitinylation, or prolyl hydroxylation. Inhibition of the proteasome by lactacystin beta-lactone (Lbl) leads to accumulation of HIF-1a in its polyubiquitinylated form which generally appears as a smear of higher molecular weight species on western blots. […] Cellular accumulation and nuclear translocation of HIF-1a can also be studied via immunohistochemistry. For this purpose we utilized U251 cells which are more adherent to cell culture dishes that the U87 cells.

[5] = tested on: HPH homologues 1, 2 and 3; experiment: ^35S-pVHL pulldown assay, in vitro translated HPH homologues; assay type: biochemical, human; conditions: 2-OG analogs at 1 mM, 5 mM or 25 mM [2-OG], ascorbate at 2 mM
Description: After incubating the peptide with the HPHs and the indicated reagents, ^35S-pVHL was added followed by addition of streptavidin-coated beads to pull down the HIF-1a peptide. The reaction was pelleted, the pellet was washed and then solubilized for SDS-PAGE analysis followed by autoradiography to reveal the captured ^35S-pVHL. Using in vitro translated HPH homologues we first optimized assay conditions with respect to the required HPH substrates and co-factors. […] Conditions for other reagents were: ascorbate=2 mM, iron sulfate=250 μM, DTT=1 mM. […] Conditions: ascorbate=2 mM, 2-OG=2 mM, DTT=1 mM. […] Conditions: 2-OG=125 μM, iron sulfate=250 μM, DTT=1 mM. […] In all assays 5 μl (about 20 ng) of enzyme and 1 μg of peptide was utilized.
FIG. 13: In vitro effects of 2-OG analogs on recombinant HPH activity HPH activity was assessed via the ^35S-pVHL pulldown assay as in FIG. 11. Activity of in vitro translated HPH homologues was determined in the absence and presence of the 2-OG analogs N-oxalylglycine (NOG), pyruvate or OAA at 1 mM.
To directly evaluate the action of pyruvate and oxaloacetate on HPH activity (step D in FIG. 2) we utilized the commonly used ^35S-pVHL pulldown assay. This assay monitors the ability of HPH homologues to confer ^35S-pVHL binding activity onto a biotinylated 19mer peptide containing the key proline564 residue of the HIF-1a ODD (see FIG. 1). […]

## CC(=O)N(O)CCCCCNC(=O)CCC(=O)N(O)CCCCCNC(=O)CCC(=O)N(O)CCCCCN [DFO, desferrioxamine]
[1]
  HIF-1a levels in glucose-free Krebs buffer: still upregulate HIF-1a protein in the absence of glucose
[2]
  HRE-GFP expression: activated HRE-GFP expression; also recorded: GFP (green fluorescence) was expressed
[3]
  HRE-luciferase expression: enhanced HRE-luciferase expression

## O=C(O)CNC(=O)C(=O)O [NOG, N-oxalylglycine]
[4]
  Ability to induce HIF (HIF-1a accumulation), structure-activity: consistently enhanced HIF-1a levels
[5]
  Inhibition of 2-OG catalyzed HPH activity: inhibition by NOG is clearly evident
